# From ChEMBL document CHEMBL1131712, “Short synthesis and anti-rhinoviral activity of imidazo[1,2-a]pyridines: the effect of acyl groups at 3-position” (Bioorg Med Chem Lett, 1999)
# Experiments:
# [1] = Cellular toxic concentration against Human rhinovirus-14 (HRV-14) using cytopathic effect assay(CPE/XTT); assay type: organism-based, Enterovirus; settings: read-out: TC50 (the source's name)
# rhinovirus B14 = assay: Inhibitory concentration required against Human rhinovirus-14 (HRV-14) using plaque reduction assay; assay type: functional, organism-based, Enterovirus; settings: Rhinovirus B
Compound,IC50 (rhinovirus B14) [µg/mL],CC50 [1] [µg/mL]
CNC(=O)/C=C(\c1ccccc1)c1ccc2nc(N)c(C(=O)c3ccc(F)cc3)n2c1,0.37,3.97
CNC(=O)/C=C(\c1ccccc1)c1ccc2nc(N)c(C(=O)c3ccccc3)n2c1,0.24,2.95
CC(C)S(=O)(=O)n1c(N)nc2ccc(/C(=N/O)c3ccccc3)cc21 [ENVIROXIME],0.045,–

# Second part, led by results:
IC50 (rhinovirus B14) [µg/mL],Compound,CC50 [1] [µg/mL]
2.48,CNC(=O)/C=C(\c1ccccc1)c1ccc2nc(N)c(C(C)=O)n2c1,22.8
0.17,CNC(=O)/C=C(\c1ccccc1)c1ccc2nc(N)c(C(=O)C(C)(C)C)n2c1,> 10
